Results reported in ChEMBL document CHEMBL2417402, “Development and therapeutic implications of selective histone deacetylase 6 inhibitors” (J Med Chem, 2013).
pIC50: −log10 of the molar value. Values belong to the molecule of their own block, whether it stands above or below them.

What was measured:
[1] = target: T1, Protein deacetylase HDAC6 (Homo sapiens, UniProt Q9UBN7); assay: Inhibition of human recombinant HDAC6 using Ac-Leu-Gly-(AMC)Lys-Ac as substrate
T1 sequence (Q9UBN7 whole entry): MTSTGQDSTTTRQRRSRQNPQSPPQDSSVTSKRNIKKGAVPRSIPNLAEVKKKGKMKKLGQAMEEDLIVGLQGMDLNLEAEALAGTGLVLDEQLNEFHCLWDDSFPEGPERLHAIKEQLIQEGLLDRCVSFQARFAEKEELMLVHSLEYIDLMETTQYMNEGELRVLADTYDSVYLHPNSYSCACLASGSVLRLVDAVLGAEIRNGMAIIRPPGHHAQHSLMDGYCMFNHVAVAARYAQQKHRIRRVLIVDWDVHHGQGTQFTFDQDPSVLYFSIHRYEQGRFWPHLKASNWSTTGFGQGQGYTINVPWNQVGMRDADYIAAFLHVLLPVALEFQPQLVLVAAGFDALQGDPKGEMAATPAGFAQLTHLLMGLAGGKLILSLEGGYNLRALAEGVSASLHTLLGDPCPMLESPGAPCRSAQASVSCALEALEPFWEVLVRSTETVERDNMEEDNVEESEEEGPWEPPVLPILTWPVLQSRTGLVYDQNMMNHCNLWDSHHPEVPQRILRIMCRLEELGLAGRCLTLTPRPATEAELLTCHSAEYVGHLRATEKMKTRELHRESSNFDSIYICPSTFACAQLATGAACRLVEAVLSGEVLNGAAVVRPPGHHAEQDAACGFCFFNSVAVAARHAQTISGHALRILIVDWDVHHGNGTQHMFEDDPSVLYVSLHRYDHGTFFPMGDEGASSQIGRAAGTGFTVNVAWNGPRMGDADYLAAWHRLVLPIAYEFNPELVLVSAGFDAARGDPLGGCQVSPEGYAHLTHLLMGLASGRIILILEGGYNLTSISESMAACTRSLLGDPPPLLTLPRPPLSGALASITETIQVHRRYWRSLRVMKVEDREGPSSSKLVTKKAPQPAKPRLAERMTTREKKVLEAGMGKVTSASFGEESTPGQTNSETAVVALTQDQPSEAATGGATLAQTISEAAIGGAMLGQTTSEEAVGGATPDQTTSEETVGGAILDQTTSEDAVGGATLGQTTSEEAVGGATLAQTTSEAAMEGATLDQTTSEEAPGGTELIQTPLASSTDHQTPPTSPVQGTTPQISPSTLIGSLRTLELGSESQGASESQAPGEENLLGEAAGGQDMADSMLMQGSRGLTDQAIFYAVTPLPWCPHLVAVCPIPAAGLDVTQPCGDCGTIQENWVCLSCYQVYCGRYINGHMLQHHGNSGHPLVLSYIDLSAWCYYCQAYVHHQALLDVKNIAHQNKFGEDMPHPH

Histone deacetylase 1 [2] = target: T2, Histone deacetylase 1 (Homo sapiens, UniProt Q13547); assay: Inhibition of human recombinant HDAC1 using Ac-Leu-Gly-(AMC)Lys-Ac as substrate
Histone deacetylase 7 = target: T3, Histone deacetylase 7 (Homo sapiens, UniProt Q8WUI4); assay: Inhibition of HDAC7 (unknown origin)
T3 sequence (Q8WUI4 whole entry): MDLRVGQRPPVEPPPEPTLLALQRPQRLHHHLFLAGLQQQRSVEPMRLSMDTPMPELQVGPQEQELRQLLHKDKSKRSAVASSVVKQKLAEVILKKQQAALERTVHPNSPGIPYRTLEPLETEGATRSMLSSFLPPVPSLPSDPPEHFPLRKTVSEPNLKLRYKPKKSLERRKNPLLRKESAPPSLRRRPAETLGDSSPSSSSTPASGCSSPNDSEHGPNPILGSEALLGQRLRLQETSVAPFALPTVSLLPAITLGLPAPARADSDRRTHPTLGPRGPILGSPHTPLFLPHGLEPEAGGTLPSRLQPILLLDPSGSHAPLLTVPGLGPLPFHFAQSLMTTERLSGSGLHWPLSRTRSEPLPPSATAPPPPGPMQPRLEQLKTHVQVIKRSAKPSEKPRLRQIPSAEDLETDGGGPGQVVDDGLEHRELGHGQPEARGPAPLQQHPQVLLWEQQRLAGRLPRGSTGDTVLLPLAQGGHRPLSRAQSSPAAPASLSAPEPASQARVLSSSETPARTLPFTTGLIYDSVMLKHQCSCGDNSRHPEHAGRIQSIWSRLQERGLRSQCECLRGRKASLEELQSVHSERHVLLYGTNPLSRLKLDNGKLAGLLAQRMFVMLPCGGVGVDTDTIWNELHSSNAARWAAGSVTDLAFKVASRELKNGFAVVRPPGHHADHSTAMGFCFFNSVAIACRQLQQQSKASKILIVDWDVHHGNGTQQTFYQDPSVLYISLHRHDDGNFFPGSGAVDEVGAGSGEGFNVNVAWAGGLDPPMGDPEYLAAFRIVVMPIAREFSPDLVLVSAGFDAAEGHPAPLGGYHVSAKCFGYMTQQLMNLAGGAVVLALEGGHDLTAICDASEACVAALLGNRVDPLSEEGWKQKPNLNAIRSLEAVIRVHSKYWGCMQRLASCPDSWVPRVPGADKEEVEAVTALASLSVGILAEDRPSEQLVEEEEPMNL

Histone deacetylase 2 [3] = target: T4, Histone deacetylase 2 (Homo sapiens, UniProt Q92769); assay: Inhibition of HDAC2 (unknown origin)
Histone deacetylase 5 = Histone deacetylase 5 (Homo sapiens, UniProt Q9UQL6); assay: Inhibition of HDAC5 (unknown origin)
[4] = target: T1, Protein deacetylase HDAC6; assay: Inhibition of HDAC6 (unknown origin)
[5] = target: T5, Polyamine deacetylase HDAC10 (Homo sapiens, UniProt Q969S8); assay: Inhibition of HDAC10 (unknown origin)
T5 sequence (Q969S8 whole entry): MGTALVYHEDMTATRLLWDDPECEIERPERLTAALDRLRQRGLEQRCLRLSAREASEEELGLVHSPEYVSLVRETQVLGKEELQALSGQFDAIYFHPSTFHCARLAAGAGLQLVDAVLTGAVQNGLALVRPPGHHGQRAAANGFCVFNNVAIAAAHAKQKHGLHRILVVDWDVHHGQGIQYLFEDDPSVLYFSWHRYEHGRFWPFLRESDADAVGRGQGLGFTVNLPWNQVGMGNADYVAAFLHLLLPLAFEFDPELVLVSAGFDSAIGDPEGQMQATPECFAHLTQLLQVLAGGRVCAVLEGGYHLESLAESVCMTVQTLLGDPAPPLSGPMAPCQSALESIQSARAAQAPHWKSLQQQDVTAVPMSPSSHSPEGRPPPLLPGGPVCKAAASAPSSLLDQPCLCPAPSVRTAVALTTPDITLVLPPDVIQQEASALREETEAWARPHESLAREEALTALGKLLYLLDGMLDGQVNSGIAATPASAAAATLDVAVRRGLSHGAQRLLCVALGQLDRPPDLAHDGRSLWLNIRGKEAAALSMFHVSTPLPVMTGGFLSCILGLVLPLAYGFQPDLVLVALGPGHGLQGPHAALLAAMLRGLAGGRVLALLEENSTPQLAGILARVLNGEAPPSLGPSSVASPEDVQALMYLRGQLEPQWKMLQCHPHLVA

Histone deacetylase 1 [6] = target: T2, Histone deacetylase 1; assay: Inhibition of HDAC1 (unknown origin)
Histone deacetylase 11 = target: T6, Histone deacetylase 11 (Homo sapiens, UniProt Q96DB2); assay: Inhibition of HDAC11 (unknown origin)
T6 sequence (Q96DB2 whole entry): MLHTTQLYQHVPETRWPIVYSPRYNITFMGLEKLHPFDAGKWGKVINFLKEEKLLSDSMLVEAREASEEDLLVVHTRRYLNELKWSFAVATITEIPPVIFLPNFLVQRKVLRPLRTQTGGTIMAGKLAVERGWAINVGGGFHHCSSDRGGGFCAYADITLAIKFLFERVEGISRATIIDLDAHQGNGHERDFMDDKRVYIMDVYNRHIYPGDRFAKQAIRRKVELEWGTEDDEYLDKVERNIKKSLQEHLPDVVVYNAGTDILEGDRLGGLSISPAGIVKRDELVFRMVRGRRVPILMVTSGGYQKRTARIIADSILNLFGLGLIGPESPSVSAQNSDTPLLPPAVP

Histone deacetylase 3 = Histone deacetylase 3 (Homo sapiens, UniProt O15379); assay: Inhibition of HDAC3 (unknown origin)
Histone deacetylase 8 [7] = target: T7, Histone deacetylase 8 (Homo sapiens, UniProt Q9BY41); assay: Inhibition of HDAC8 (unknown origin)
T7 sequence (Q9BY41 whole entry): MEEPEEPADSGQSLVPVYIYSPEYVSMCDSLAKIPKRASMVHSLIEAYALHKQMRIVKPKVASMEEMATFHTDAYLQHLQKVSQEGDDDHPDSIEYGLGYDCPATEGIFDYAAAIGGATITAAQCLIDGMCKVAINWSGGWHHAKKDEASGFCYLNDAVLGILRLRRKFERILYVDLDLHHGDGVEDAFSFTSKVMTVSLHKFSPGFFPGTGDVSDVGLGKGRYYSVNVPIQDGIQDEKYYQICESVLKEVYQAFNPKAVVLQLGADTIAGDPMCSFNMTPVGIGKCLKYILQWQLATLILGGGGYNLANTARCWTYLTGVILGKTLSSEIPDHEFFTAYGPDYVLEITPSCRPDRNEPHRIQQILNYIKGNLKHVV

[8] = target: T1, Protein deacetylase HDAC6; assay: Inhibition of His-6-tagged full length HDAC6 (unknown origin) expressed in sf9 cells using carboxyfluorescein (FAM)-labeled acetylated peptide as substrate after 17 hrs by fluorescence-based electrophoretic assay
Histone deacetylase 8 [9] = target: T7, Histone deacetylase 8; assay: Inhibition of His-6-tagged full length HDAC8 (unknown origin) expressed in sf9 cells using carboxyfluorescein (FAM)-labeled acetylated peptide as substrate after 17 hrs by fluorescence-based electrophoretic assay
Histone deacetylase 2 [10] = target: T4, Histone deacetylase 2; assay: Inhibition of His-6-tagged full length HDAC2 (unknown origin) expressed in sf9 cells using carboxyfluorescein (FAM)-labeled acetylated peptide as substrate after 17 hrs by fluorescence-based electrophoretic assay
[11] = target: T5, Polyamine deacetylase HDAC10; assay: Inhibition of C-terminal deleted 38 amino acids (632 to 669) HDAC10 (unknown origin) expressed in sf9 cells using carboxyfluorescein (FAM)-labeled acetylated peptide as substrate after 17 hrs by fluorescence-based electrophoretic assay
Histone deacetylase 1 [12] = target: T2, Histone deacetylase 1; assay: Inhibition of His-6-tagged full length HDAC1 (unknown origin) expressed in sf9 cells using carboxyfluorescein (FAM)-labeled acetylated peptide as substrate after 17 hrs by fluorescence-based electrophoretic assay
Histone deacetylase 4 = Histone deacetylase 4 (Homo sapiens, UniProt P56524); assay: Inhibition of HDAC4 (unknown origin)
Chain of Histone deacetylase 4 (P56524 whole entry): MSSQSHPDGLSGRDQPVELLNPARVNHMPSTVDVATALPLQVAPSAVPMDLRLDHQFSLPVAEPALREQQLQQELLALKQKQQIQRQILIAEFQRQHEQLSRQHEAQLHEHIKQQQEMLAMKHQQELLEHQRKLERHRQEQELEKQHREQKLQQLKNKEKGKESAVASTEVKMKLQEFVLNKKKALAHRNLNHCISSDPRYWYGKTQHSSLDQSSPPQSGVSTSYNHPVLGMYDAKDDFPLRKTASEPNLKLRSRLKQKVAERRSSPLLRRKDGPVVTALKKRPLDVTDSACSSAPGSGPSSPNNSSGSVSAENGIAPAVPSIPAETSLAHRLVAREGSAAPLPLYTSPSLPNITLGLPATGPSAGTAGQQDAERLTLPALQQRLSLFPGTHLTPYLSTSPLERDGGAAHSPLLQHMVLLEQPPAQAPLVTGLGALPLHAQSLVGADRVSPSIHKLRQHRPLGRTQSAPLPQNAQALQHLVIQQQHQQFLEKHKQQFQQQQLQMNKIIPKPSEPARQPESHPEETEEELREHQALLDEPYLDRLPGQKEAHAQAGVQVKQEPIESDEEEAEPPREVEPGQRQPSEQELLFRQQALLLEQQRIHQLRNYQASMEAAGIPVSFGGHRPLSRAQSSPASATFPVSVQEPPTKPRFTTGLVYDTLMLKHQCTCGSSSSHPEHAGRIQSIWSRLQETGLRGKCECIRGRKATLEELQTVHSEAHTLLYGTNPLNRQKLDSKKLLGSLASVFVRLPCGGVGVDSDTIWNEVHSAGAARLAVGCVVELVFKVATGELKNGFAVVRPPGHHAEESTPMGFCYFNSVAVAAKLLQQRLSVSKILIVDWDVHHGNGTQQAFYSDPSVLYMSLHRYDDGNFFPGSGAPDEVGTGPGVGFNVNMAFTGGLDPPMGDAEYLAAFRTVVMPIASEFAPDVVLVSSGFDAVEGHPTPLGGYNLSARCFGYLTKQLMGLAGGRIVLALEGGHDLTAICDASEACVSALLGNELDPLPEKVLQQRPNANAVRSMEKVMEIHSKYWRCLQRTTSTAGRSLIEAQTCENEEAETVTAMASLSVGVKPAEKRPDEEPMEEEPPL

T2 sequence (Q13547 whole entry): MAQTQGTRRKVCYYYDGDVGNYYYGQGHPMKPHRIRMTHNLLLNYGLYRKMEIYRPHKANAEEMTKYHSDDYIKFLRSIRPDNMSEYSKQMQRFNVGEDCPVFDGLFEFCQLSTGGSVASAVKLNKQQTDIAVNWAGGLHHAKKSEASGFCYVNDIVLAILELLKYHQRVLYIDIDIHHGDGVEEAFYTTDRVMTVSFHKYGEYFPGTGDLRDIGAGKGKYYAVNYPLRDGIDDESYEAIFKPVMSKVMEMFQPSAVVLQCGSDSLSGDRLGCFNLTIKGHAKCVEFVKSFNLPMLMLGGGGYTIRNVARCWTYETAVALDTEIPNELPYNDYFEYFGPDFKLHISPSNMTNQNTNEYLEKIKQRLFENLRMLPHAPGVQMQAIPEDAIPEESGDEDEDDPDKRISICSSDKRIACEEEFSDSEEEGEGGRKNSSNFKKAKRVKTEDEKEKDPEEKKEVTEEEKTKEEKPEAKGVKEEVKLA
T4 sequence (Q92769 whole entry): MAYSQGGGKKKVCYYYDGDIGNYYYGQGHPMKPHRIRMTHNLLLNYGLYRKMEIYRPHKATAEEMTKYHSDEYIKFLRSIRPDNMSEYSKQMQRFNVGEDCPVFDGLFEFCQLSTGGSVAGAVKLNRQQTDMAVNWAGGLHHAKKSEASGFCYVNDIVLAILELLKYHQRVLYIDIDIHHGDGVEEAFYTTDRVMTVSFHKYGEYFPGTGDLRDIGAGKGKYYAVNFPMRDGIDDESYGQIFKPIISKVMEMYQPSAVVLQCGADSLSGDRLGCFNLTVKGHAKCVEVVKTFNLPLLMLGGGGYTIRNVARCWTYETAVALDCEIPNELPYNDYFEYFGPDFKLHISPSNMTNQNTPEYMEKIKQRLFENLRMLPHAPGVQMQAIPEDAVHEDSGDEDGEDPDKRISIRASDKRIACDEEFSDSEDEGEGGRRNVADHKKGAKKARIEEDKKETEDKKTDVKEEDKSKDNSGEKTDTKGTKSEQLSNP
Chain of Histone deacetylase 5 (Q9UQL6 whole entry): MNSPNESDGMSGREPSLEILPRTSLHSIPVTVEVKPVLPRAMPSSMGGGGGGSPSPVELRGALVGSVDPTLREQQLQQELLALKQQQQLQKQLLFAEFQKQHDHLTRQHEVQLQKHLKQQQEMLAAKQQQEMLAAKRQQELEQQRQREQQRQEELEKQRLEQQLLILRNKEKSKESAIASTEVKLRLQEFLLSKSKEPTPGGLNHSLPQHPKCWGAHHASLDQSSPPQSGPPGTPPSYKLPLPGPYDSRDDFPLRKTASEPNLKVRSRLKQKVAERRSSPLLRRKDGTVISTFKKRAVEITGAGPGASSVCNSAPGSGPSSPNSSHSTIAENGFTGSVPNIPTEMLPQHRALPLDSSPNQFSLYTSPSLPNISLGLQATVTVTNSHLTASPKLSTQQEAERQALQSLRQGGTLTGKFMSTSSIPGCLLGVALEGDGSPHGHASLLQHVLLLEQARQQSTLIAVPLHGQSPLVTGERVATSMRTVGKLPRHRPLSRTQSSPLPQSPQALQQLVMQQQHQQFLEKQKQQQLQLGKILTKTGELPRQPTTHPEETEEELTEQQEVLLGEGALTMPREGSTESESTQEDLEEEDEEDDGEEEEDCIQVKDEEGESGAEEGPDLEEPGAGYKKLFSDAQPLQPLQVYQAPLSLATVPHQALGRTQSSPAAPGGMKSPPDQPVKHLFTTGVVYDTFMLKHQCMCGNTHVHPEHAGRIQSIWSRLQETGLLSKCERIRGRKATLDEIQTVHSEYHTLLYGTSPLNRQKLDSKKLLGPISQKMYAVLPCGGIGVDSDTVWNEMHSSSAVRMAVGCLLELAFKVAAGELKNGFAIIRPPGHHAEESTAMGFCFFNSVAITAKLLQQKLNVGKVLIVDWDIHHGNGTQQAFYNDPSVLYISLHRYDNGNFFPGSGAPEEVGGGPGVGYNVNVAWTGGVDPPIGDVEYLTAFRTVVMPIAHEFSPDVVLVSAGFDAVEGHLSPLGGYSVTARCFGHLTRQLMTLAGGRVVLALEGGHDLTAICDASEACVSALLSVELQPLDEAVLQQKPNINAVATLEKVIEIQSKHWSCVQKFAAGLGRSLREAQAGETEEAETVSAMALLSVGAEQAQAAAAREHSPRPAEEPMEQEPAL
Chain of Histone deacetylase 3 (O15379 whole entry): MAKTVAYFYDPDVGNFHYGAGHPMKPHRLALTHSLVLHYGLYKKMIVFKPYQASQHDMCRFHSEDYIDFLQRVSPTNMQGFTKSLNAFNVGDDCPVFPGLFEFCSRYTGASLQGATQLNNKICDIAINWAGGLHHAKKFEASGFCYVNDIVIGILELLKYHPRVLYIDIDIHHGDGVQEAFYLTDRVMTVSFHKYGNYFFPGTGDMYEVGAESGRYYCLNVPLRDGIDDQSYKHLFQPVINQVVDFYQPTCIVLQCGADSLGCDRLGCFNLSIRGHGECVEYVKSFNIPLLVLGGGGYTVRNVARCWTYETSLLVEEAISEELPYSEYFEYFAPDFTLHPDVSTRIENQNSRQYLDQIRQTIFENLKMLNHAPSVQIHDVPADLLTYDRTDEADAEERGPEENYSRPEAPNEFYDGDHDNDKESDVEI

Structure (SMILES): O=C(NC1=CC(=O)c2ccccc2C1=O)c1ccccc1
pIC50 [1]: 5.26 | pIC50 (Histone deacetylase 1 [2]): < 3.74

Structure (SMILES): O=C(CCCCCNC(=O)NC12CC3CC(CC(C3)C1)C2)NO
pIC50 (Histone deacetylase 7): 5.89 | pIC50 (Histone deacetylase 2 [3]): 5.59 | pIC50 (Histone deacetylase 5): 6.51 | pIC50 [4]: 7.14 | pIC50 [5]: 6.57 | pIC50 (Histone deacetylase 1 [6]): 6.24 | pIC50 (Histone deacetylase 11): 6.72 | pIC50 (Histone deacetylase 3): 5.81 | pIC50 (Histone deacetylase 8 [7]): 5.17

Structure (SMILES): Cc1onc(-c2ccccc2)c1C(=O)NCCCCCNC(=O)[C@@H](C)S
pIC50 (Histone deacetylase 2 [3]): < 4.52 | pIC50 (Histone deacetylase 5): < 4.52 | pIC50 [4]: 6.55 | pIC50 (Histone deacetylase 1 [6]): < 4.52 | pIC50 (Histone deacetylase 4): < 4.52

Now from value to molecule:

pIC50 [8]: 7.80 | pIC50 (Histone deacetylase 8 [9]): 5.58 | pIC50 (Histone deacetylase 2 [10]): 6.71 | pIC50 [11]: 7.15 | pIC50 (Histone deacetylase 1 [12]): 7.28
Structure (SMILES): O=C(CCCCCCC(=O)Nc1ccc(-c2ccccc2NC(=O)[C@@H]2CCCN2)cc1)NO

pIC50 [4]: 5.39 | pIC50 (Histone deacetylase 1 [6]): 4.17
Structure (SMILES): COC(=O)[C@H](Cc1ccccn1)NC(=O)CCCCCCCC(=O)NO

pIC50 [4]: 5.40 | pIC50 (Histone deacetylase 1 [6]): 4.08
Structure (SMILES): COC(=O)[C@@H](Cc1ccccn1)NC(=O)CCCCCCCC(=O)NO
